From US20110105324A1, “Herbicidal Compounds Based on N-Azinyl-N-Phenylsulfonylureas” (BAYER CROPSCIENCE AG, priority 2008, published 2011)

Columns and labels:
Alopecurus myosuroides [1] = experiment: Pre-emergence herbicidal activity, greenhouse pot test; assay type: in vivo; conditions: 80 g/ha, scored visually after approx. 3 weeks, 100% = plants have died, 0% = like control
Description: (§1) Seeds of monocotyledonous or dicotyledonous weed plants or crop plants are placed in sandy loam in wood fiber pots and covered with soil. The compounds according to the invention, which are formulated as wettable powders (WP), are then applied to the surface of the soil cover in the form of an aqueous suspension or emulsion with a water application rate of 600 l/ha (converted), with addition of 0.2% wetting agent.
(§2) After the treatment, the pots are placed in a greenhouse and maintained under good growth conditions for the test plants. After approximately 3 weeks, the activity of the preparations is scored visually in comparison with untreated controls (herbicidal activity in percent (%): 100% activity=the plants have died, 0% activity=like control plants).

Lolium multiflorum = experiment: as above; assay type: in vivo; conditions: 80 g/ha, scored visually after approx. 3 weeks, 100% = plants have died, 0% = like control
Description: as §1, §2

Alopecurus myosuroides [2] = experiment: Post-emergence herbicidal activity, greenhouse pot test; assay type: in vivo; conditions: one-leaf stage, 80 g/ha, scored visually after approx. 3 weeks, 100% = plants have died, 0% = like control
Description: (§3) Seeds of monocotyledonous or dicotyledonous weed plants or crop plants are placed in sandy loam in wood fiber pots, covered with soil and grown in a greenhouse under good growth conditions. 2 to 3 weeks after sowing, the test plants are treated in the one-leaf stage. The compounds according to the invention, which are formulated as wettable powders (WP), are then sprayed onto the green plant parts in the form of an aqueous suspension or emulsion with a water application rate of 600 l/ha (converted) with addition of 0.2% of wetting agent. After the test plants have been left to stand in the greenhouse for approximately 3 weeks under optimal growth conditions, the activity of the preparation is scored visually in comparison with untreated controls (herbicidal activity in percent (%): 100% activity=the plants have died, 0% activity=like control plants).

Cyperus esculentus [3] = experiment: as above; assay type: in vivo; conditions: one-leaf stage, 80 g/ha, scored visually after approx. 3 weeks, 100% = plants have died, 0% = like control
Description: as §3

Polygonum convolvulus = experiment: as above; assay type: in vivo; conditions: one-leaf stage, 80 g/ha, scored visually after approx. 3 weeks, 100% = plants have died, 0% = like control
Description: as §3

Abutilon theophrasti = experiment: as above; assay type: in vivo; conditions: one-leaf stage, 80 g/ha, scored visually after approx. 3 weeks, 100% = plants have died, 0% = like control
Description: as §3

Echinochloa crus-galli = experiment: as above; assay type: in vivo; conditions: one-leaf stage, 80 g/ha, scored visually after approx. 3 weeks, 100% = plants have died, 0% = like control
Description: as §3

Amaranthus retroflexus = experiment: as above; assay type: in vivo; conditions: one-leaf stage, 80 g/ha, scored visually after approx. 3 weeks, 100% = plants have died, 0% = like control
Description: as §3

Matricaria inodora [4] = experiment: as above; assay type: in vivo; conditions: one-leaf stage, 80 g/ha, scored visually after approx. 3 weeks, 100% = plants have died, 0% = like control
Description: as §3

Pharbitis purpurea [5] = experiment: Pre-emergence herbicidal activity, greenhouse pot test; assay type: in vivo, Pharbitis/Ipomoea purpurea; conditions: 80 g/ha, scored visually after approx. 3 weeks, 100% = plants have died, 0% = like control
Description: as §1, §2

Pharbitis purpurea [6] = experiment: Post-emergence herbicidal activity, greenhouse pot test; assay type: in vivo, Pharbitis (Ipomoea) purpurea; conditions: one-leaf stage, 80 g/ha, scored visually after approx. 3 weeks, 100% = plants have died, 0% = like control
Description: as §3

Cyperus esculentus [7] = experiment: Pre-emergence herbicidal activity, greenhouse pot test; assay type: in vivo; conditions: 80 g/ha, scored visually after approx. 3 weeks, 100% = plants have died, 0% = like control
Description: as §1, §2

Viola tricolor [8] = experiment: as above; assay type: in vivo; conditions: 80 g/ha, scored visually after approx. 3 weeks, 100% = plants have died, 0% = like control
Description: as §1, §2

Veronica persica = experiment: as above; assay type: in vivo; conditions: 80 g/ha, scored visually after approx. 3 weeks, 100% = plants have died, 0% = like control
Description: as §1, §2

Matricaria inodora [9] = experiment: as above; assay type: in vivo; conditions: 80 g/ha, scored visually after approx. 3 weeks, 100% = plants have died, 0% = like control
Description: as §1, §2

Stellaria media = experiment: as above; assay type: in vivo; conditions: 80 g/ha, scored visually after approx. 3 weeks, 100% = plants have died, 0% = like control
Description: as §1, §2

Viola tricolor [10] = experiment: Post-emergence herbicidal activity, greenhouse pot test; assay type: in vivo; conditions: one-leaf stage, 80 g/ha, scored visually after approx. 3 weeks, 100% = plants have died, 0% = like control
Description: as §3

| SMILES | herbicidal activity ALOMY (Alopecurus myosuroides [1]) [%] | herbicidal activity LOLMU (Lolium multiflorum) [%] | herbicidal activity ALOMY (Alopecurus myosuroides [2]) [%] | herbicidal activity CYPES (Cyperus esculentus [3]) [%] | herbicidal activity POLCO (Polygonum convolvulus) [%] | herbicidal activity ABUTH (Abutilon theophrasti) [%] | herbicidal activity ECHCG (Echinochloa crus-galli) [%] | herbicidal activity AMARE (Amaranthus retroflexus) [%] | herbicidal activity MATIN (Matricaria inodora [4]) [%] | herbicidal activity PHBPU (Pharbitis purpurea [5]) [%] | herbicidal activity PHBPU (Pharbitis purpurea [6]) [%] | herbicidal activity CYPES (Cyperus esculentus [7]) [%] | herbicidal activity VIOTR (Viola tricolor [8]) [%] | herbicidal activity VERPE (Veronica persica) [%] | herbicidal activity MATIN (Matricaria inodora [9]) [%] | herbicidal activity STEME (Stellaria media) [%] | herbicidal activity VIOTR (Viola tricolor [10]) [%] |
| --- | --- | --- | --- | --- | --- | --- | --- | --- | --- | --- | --- | --- | --- | --- | --- | --- | --- |
| Cc1cc(C)nc(NC(=O)NS(=O)(=O)c2ccccc2OC(C)C(F)(F)F)n1 (stereo not shown) [Compound I-1, N-[(4,6-Dimethylpyrimidin-2-yl)carbamoyl]-2-(2,2,2-trifluoro-1-methylethoxy)-benzenesulfonamide] | 80 | 80 | 90 | 80 | 90 | 90 | 80 | 80 | 80 |  |  |  |  |  |  |  |  |
| COc1cc(C)nc(NC(=O)NS(=O)(=O)c2ccccc2OC(C)C(F)(F)F)n1 (stereo not shown) [Compound I-2] | 90 | 90 | 90 | 80 | 90 | 90 | 80 |  | 80 | 80 | 80 | 100 | 80 | 80 | 80 | 80 | 90 |
| COc1cc(Cl)nc(NC(=O)NS(=O)(=O)c2ccccc2OC(C)C(F)(F)F)n1 (stereo not shown) [Compound I-3] | 80 | 80 | 80 | 80 | 80 | 90 |  |  | 90 | 80 | 90 | 100 |  | 80 | 80 |  | 80 |
| COc1cc(OC)nc(NC(=O)NS(=O)(=O)c2ccccc2OC(C)C(F)(F)F)n1 (stereo not shown) [Compound I-4] | 80 | 80 | 90 | 80 | 80 | 100 | 80 |  | 90 | 80 | 80 | 90 | 80 | 80 | 80 |  | 90 |
| COc1nc(C)nc(NC(=O)NS(=O)(=O)c2ccccc2OC(C)C(F)(F)F)n1 (stereo not shown) [Compound I-5, N-[(4-Methoxy-6-methyl-1,3,5-triazin-2-yl)carbamoyl]-2-(2,2,2-trifluoro-1-methylethoxy)benzenesulfonamide] | 90 |  | 90 |  | 90 | 90 |  | 100 | 90 | 80 | 90 |  | 80 | 90 | 80 | 80 | 90 |
| COc1nc(NC(=O)NS(=O)(=O)c2ccccc2OC(C)C(F)(F)F)nc(OC)n1 (stereo not shown) [Compound I-6] | 80 |  |  |  | 90 | 90 |  | 80 | 90 | 80 | 90 | 100 | 80 | 80 | 80 | 80 | 90 |
